Assay results reported in ChEMBL document CHEMBL3526110, “Preclinical evaluation of the metabolism and disposition of RRx-001, a novel investigative anticancer agent” (Drug Metab Dispos, 2012).

Tests used:
[1] = system: Blood; test: Retention time in rat whole blood in presence of 0.1% formic acid in acetonitrile at 20 uM by LC-MS/MS method; type: ADME, tissue-based
[2] = system: Blood; test: Retention time in human whole blood in presence of 0.1% formic acid in acetonitrile at 20 uM by LC-MS/MS method; type: ADME, tissue-based
[3] = system: Blood; test: Drug metabolism in rat whole blood treated with 20 uM RRx-001 assessed as compound formation by LC-MS/MS method; type: ADME, tissue-based
[4] = Drug level assessed as compound formation from RRx-001 after 1 hr in presence of reduced GSH at pH 7.8 by LC-MS/MS method; type: physicochemical; settings: pH 7.8, 1 h
[5] = system: Blood; test: Drug metabolism in human whole blood treated with 20 uM RRx-001 assessed as compound formation by LC-MS/MS method; type: ADME, tissue-based
[6] = system: Blood; test: Retention time in rat whole blood in presence of 0.1% formic acid in water at 20 uM by LC-MS/MS method; type: ADME, tissue-based
[7] = system: Blood; test: Retention time in human whole blood in presence of 0.1% formic acid in water at 20 uM by LC-MS/MS method; type: ADME, tissue-based

Structure (SMILES): N[C@@H](CSCC(=O)N1CC([N+](=O)[O-])([N+](=O)[O-])C1)C(=O)O
- Retention_time [1]: 7.6 min
- Retention_time [2]: 7.6 min
- Drug metabolism [3]: metabolite_detected
- Drug metabolism [4]: metabolite_detected
- Drug metabolism [5]: metabolite_detected
- Retention_time [6]: 7.8 min
- Retention_time [7]: 7.8 min
